In patent US7253138B2, “Corrosion and gas hydrate inhibitors having improved water solubility and increased biodegradability” (Clariant Produkte (Deutschland) GmbH, priority 2003, dated 2007):

How the values were obtained:
[1] = Shell wheel test (corrosion inhibition); conditions: salt water/petroleum mixture (9:1.5% NaCl solution, pH 3.5 with acetic acid), 40 rpm, 70° C., 24 hours; 50 ppm of a 40% solution of the inhibitor; from mass reduction vs blank
Description: The compounds according to the invention were tested as corrosion inhibitors in the Shell wheel test. Coupons of carbon steel (DIN 1.1203 having 15 cm^2 surface area) were immersed in a salt water/petroleum mixture (9:1.5% NaCl solution, adjusted to pH 3.5 using acetic acid) and subjected to this medium at a rotation rate of 40 rpm at 70° C. for 24 hours. The dosage of the inhibitor was 50 ppm of a 40% solution of the inhibitor. The protection values were calculated from the mass reduction of the coupons, based on a blank value.
In the table which follows, “comparison” refers to a commercial soya fatty acid amidopropyl-N,N-dimethylammonium carboxymethyl betaine described by EP-B-0 446 616 (prior art corrosion inhibitor).

[2] = LPR test (corrosion inhibition, test conditions similar to ASTM D 2776)
Description: The products were also tested in the LPR test (test conditions similar to ASTM D 2776).

[3] = Agitation foam method; type: physicochemical; conditions: 50 ml of a 3% aqueous solution in demineralized water, agitated 20 times within 10 sec in closed 100 ml cylinder
Description: The foam properties were tested with the agitation foam method. To this end, 50 ml of a 3% aqueous solution of the appropriate corrosion inhibitor in demineralized water were agitated in a closed 100 ml measuring cylinder 20 times within 10 sec. On completion of the agitation, the foaming behavior was assessed using the total volume of the solution (foam height) and the foam decomposition time (time until attainment of the starting volume of 50 ml).

| Substance | ø Protection % [1] | Protection after 10 min [2] | Protection after 30 min [2] | Protection after 60 min [2] | Foaming behavior [3] |
| --- | --- | --- | --- | --- | --- |
| Dodecenyl-/tetradecenylsuccinimido-N,N-dimethylpropylammonium N-methylcarboxyl betaine [Betaine from example 7] | 84.9% | 72.5% | 92.0% | 98.1% |  |
| Pentapropylenesuccinimido-N,N-dimethylpropylammonium N-methylcarboxyl betaine [Betaine from example 9] | 90.4% | 77.9% | 94.0% | 99.8% | Weakly foaming |
| Polyisobutenylsuccinimido-N,N-dimethylpropylammonium N-methyl-carboxyl betaine [Betaine from example 10] | 90.1% | 79.1% | 92.3% | 99.2% | Weakly foaming |
| Polyisobutenylsuccinimido-N,N-dimethylpropylammonium N-methyl-carboxyl betaine [Betaine from example 11] | 80.6% | 61.9% | 70.6% | 80.6% | Weakly foaming |
| Polyisobutenylsuccinimido-N,N-dimethylpropylammonium N-methyl-carboxyl betaine [Betaine from example 12] | 82.7% | 70.0% | 79.4% | 86.3% |  |
| Tetrapropylenesuccinimido-N,N-dimethylpropylammonium N-methylcarboxyl betaine [Betaine from example 8] | 84.0% | 74.0% | 81.3% | 84.9% |  |
| soya fatty acid amidopropyl-N,N-dimethylammonium carboxymethyl betaine [Comparison, reference compound] | 75.4% | 45.9% | 59.2% | 64.2% | Strongly foaming |
